SMILES strings stand for the structures. Bounds are passed on as bounds.

The values that follow come from patent US20170165254A1, “TREATING FLAVIVIRUS INFECTIONS WITH AMODIAQUINE AND DERIVATIVES THEREOF” (GEORGETOWN UNIVERSITY, priority 2014, published 2017).

In one data set the test system is DENV2 replicon. Kind of data set: microbe, parasite or virus in culture. In kind it is cell-based, Dengue Virus 2 (DENV2). The note with it: for inhibition at 50 µM / EC50: Dengue virus; for inhibition at 50 µM: DENV2, BHK-21, read-out: % Replicon Inhibition (Means ± SEM) DENV2; for EC50: DENV2, BHK-21, read-out: DENV replicon EC50. (In general: In antiviral work, replicon cells carry a viral genome segment that copies itself.)

A further data set deals with WNV replicon. Kind of data set: microbe, parasite or virus in culture. The following applies: for inhibition at 50 µM / EC50: West Nile virus, Vero; for inhibition at 50 µM: read-out: % Replicon Inhibition (Means ± SEM) WNV; for EC50: read-out: WNV replicon EC50. Type of data set: cell-based, West Nile virus (WNV).
Data set [1] can be described thus: in vitro. The note with it: hamster.
The nature of data set [2]: in vitro. The following applies: African green monkey.
A further data set concerns BHK-21 cells. The following applies: hamster.
The next data set deals with Vero cells. The note with it: African green monkey.

Regarding `CC(CCc1ccc(N(CCCl)CCCl)cc1)Nc1ccnc2cc(Cl)ccc12` (stereo not shown) [chloroquine ethyl phenyl mustard], in the data set on DENV2 replicon, the “% Replicon Inhibition (Means ± SEM) DENV2” value is reported as 99.8 ± 0.03%, the inhibition at 50 µM was greater than 99% and the EC50 worked out at 3.6 ± 0.83 µM. Besides, in the data set with WNV replicon, the “% Replicon Inhibition (Means ± SEM) WNV” value came out at 99.5 ± 0.05%, the inhibition at 50 µM was greater than 99% and the concentration for a half-maximal effect (EC50) worked out at 1.55 ± 0.4 µM. In “in vitro [1]”, this molecule gave a CC50 of 74.1 ± 21.5 µM. Moreover, in “in vitro [2]”, the CC50 stood at 5.02 ± 1.23 µM.
In the case of `CC(CCCN(CCCl)CCCl)Nc1ccnc2cc(Cl)ccc12` (stereo not shown) [chloroquine mustard], in the data set with DENV2 replicon, the “% Replicon Inhibition (Means ± SEM) DENV2” value is recorded as 99.6 ± 0.32%, the inhibition at 50 µM is greater than 99% and the EC50 was found to be 2.9 ± 0.78 µM. Further, in the data set with WNV replicon, the “% Replicon Inhibition (Means ± SEM) WNV” value turned out to be 99.8 ± 0.03%, the inhibition at 50 µM was greater than 99% and the EC50 is 2.95 ± 0.77 µM. Also, the CC50 in the data set with BHK-21 cells was determined as 30.5 ± 9.77 µM. The molecule also displayed a CC50 in the data set with Vero cells of 3.64 ± 0.93 µM.

Broadly, the inhibition is the drop in the measured response relative to a control, in per cent. The term EC50 denotes the concentration that produces a half-maximal response.
